target: human α7 nAChR (Homo sapiens (Human), UniProt P36544); assay: Automated patch-clamp electrophysiology functional assay (Assay A); format: cell-based; settings: IonFlux HT whole-cell population patch, HEK cell line stably expressing human RIC-3 and human α7, 40 μM acetylcholine
Protocol: The α7 nAChR positive allosteric modulator (PAM) activity of the present compounds may be tested using assays known in the art. The α7 nAChR PAMs described herein have activities in an automated patch-clamp electrophysiology functional assay as described in the examples. The assay was performed using the IonFlux HT in a whole-cell, population patch configuration. See Golden et al. Assay Drug Dev. Technol. (2011) 9:608-619. The compounds were assessed for their ability to modulate the function of the human α7 nAChR stably expressed in a HEK cell line both in the presence, and in the absence of the natural α7 agonist acetylcholine. By performing a series of such measurements at different concentrations, the effective concentration of the α7 nAChR PAMs (EC50) was determined. See Spencer et al. Assay Drug Dev. Technol. (2012) 10:313-324.
Direct activation of α7 (agonism), and potentiation of acetylcholine-evoked α7 currents was determined as follows:
Automated patch-clamp electrophysiology was performed using the IonFlux HT (Fluxion Biosciences Inc., San Francisco, CA) in the whole-cell, population patch configuration. Test compounds were assessed for their ability to modulate the function of the α7 nicotinic acetylcholine receptor both in the presence, and in the absence of the natural α7 agonist acetylcholine. A HEK cell line stably expressing both human RIC-3 and human α7 (PrecisION hnAChR α7/RIC-3, Eurofins Pharma, St. Charles, MO) was cultured in 175 cm^2 triple-layer tissue culture flasks to no more than 90% confluency in DMEM/F-12 growth media supplemented with 10% heat-inactivated fetal bovine serum, 1% non-essential amino acids, 0.625 μg/mL Puromycin, and 400 μg/mL Geneticin. Immediately prior to assay, cells were detached by first aspirating growth media, rinsing with Dulbecco's phosphate buffered saline, and then adding 10 mL of Accutase (Innovative Cell Technologies, San Diego, CA) to the flask and then incubating at 37° C. for 5 minutes. Detached cells were then recovered by the addition of 40 mL of CHO-serum-free media supplemented with 25 mM HEPES, and rocked gently in a 50 mL conical tube for 20 minutes prior to patch-clamp assay. After recovery, cells were pelleted by centrifugation at 1,000 RPM for 1 minute in a compact bench top centrifuge; recovery media was aspirated and cells were resuspended in external recording solution (150 mM NaCl, 5 mM KCl, 2 mM CaCl2), 1 mM MgCl2, 10 mM HEPES, 12 mM dextrose) to a density of 5.0×10^6 cells/mL. The cell suspension was added to the cell inlet wells on an IonFlux HT population patch plate which had previously been rinsed and primed with deionized H2O. Test compounds were serially diluted in DMSO and then resuspended to the final test concentration in external recording solution, with, or without 40 μM acetylcholine added to the external recording solution; test compounds were then transferred to the IonFlux HT population patch plate. Internal recording solution (110 mM TrisPO4, 28 mM TrisBase, 0.1 mM CaCl2), 2 mM MgCl2, 11 mM EGTA, 4 mM MgATP) was added to the internal recording solution inlet wells on the IonFlux HT patch plate previously loaded with cells and test compounds, and the plate loaded into the IonFlux HT instrument. A protocol was executed on the IonFlux HT to trap the cells, break into the cells, and establish the whole-cell recording configuration; cells were voltage-clamped at a holding potential of −60 mV for the duration of the experiment, all experiments were conducted at room temperature, and the IonFlux HT injection pressure was 8 psi for solution applications. Upon establishing the whole-cell configuration, external recording solution was perfused into the recording chambers for 120 seconds and then 40 μM acetylcholine was applied for 1 second and immediately washed off with external recording solution for 60 seconds. […]

Chain of human α7 nAChR (P36544 23-502): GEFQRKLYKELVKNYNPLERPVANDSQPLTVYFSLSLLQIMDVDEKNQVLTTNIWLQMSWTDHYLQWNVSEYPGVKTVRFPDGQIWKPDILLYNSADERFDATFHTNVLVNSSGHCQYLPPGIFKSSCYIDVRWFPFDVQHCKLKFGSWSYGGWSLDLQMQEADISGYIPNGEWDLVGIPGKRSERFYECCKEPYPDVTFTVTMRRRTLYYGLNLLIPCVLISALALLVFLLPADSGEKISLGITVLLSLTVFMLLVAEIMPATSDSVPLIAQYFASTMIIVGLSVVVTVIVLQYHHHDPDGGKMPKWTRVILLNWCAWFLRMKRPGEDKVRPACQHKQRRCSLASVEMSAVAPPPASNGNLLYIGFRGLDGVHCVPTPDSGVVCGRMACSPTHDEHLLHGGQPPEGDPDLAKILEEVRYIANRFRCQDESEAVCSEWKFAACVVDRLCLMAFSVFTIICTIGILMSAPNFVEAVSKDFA

Row | SMILES | EC50 [nM]
1 | NS(=O)(=O)N1CCC2(CC1)[C@@H](c1cccc(-c3ccc(C(F)(F)F)cc3)n1)C2(F)F [Example B1, (2S)-1,1-Difluoro-2-{6-[4-(trifluoromethyl)phenyl]pyridin-2-yl}-6-azaspiro[2.5]octane-6-sulfonamide] | 4400
2 | NS(=O)(=O)N1CCC2(CC1)[C@H](c1cc(-c3ccccc3)ccn1)C2(F)F [Example A1, (2R)-1,1-Difluoro-2-(4-phenylpyridin-2-yl)-6-azaspiro[2.5]octane-6-sulfonamide] | 190
3 | NS(=O)(=O)N1CCC2(CC1)[C@@H](c1cc(-c3ccccc3)ccn1)C2(F)F [Example B2, (2S)-1,1-Difluoro-2-(4-phenylpyridin-2-yl)-6-azaspiro[2.5]octane-6-sulfonamide] | 1700
4 | NS(=O)(=O)N1CCC2(CC1)[C@H](c1cccc(-c3ccccc3C3CC3)n1)C2(F)F [Example A2, (2R)-2-[6-(2-Cyclopropylphenyl)pyridin-2-yl]-1,1-difluoro-6-azaspiro[2.5]octane-6-sulfonamide] | 830
5 | NS(=O)(=O)N1CCC2(CC1)C(c1cccc(-c3conc3C3CC3)n1)C2(F)F (single isomer, unassigned) [Example C2, 2-[6-(3-Cyclopropylisoxazol-4-yl)pyridin-2-yl]-1,1-difluoro-6-azaspiro[2.5]octane-6-sulfonamide] | 850
6 | NS(=O)(=O)N1CCC2(CC1)[C@H](c1nc3ccccc3o1)C2(F)F [Example A3, (2R)-2-(1,3-Benzoxazol-2-yl)-1,1-difluoro-6-azaspiro[2.5]octane-6-sulfonamide] | 1000
7 | NS(=O)(=O)N1CCC2(CC1)C(c1cccc(-c3cccc(C(F)(F)F)c3)c1)C2(F)F (racemic) [Example C1, 1,1-Difluoro-2-[3′-(trifluoromethyl)biphenyl-3-yl]-6-azaspiro[2.5]octane-6-sulfonamide] | 430
8 | NS(=O)(=O)N1CCC2(CC1)[C@H](c1nccc(-c3ccccc3)n1)C2(F)F [Example 4, (2R)-1,1-Difluoro-2-(4-phenylpyrimidin-2-yl)-6-azaspiro[2.5]octane-6-sulfonamide] | 1900
9 | NS(=O)(=O)N1CCC2(CC1)[C@H](c1cccc(-c3ccc(C(F)(F)F)cc3)n1)C2(F)F [Example 5, (2R)-1,1-Difluoro-2-{6-[4-(trifluoromethyl)phenyl]pyridin-2-yl}-6-azaspiro[2.5]octane-6-sulfonamide] | 340
10 | NS(=O)(=O)N1CCC2(CC1)CC2c1cccc(-c2ccccc2)n1 (stereo not shown) [Example 3, 1-(6-Phenylpyridin-2-yl)-6-azaspiro[2.5]octane-6-sulfonamide] | 3000
11 | Cc1ccccc1-c1cccc([C@@H]2C(F)(F)C23CCN(S(N)(=O)=O)CC3)n1 [Example 6, (2R)-1,1-Difluoro-2-[6-(2-methylphenyl)pyridin-2-yl]-6-azaspiro[2.5]octane-6-sulfonamide] | 2200
12 | NS(=O)(=O)N1CCC2(CC1)C(c1cccc(-c3ccccc3)n1)C2(F)F (stereo not shown) [Example 2, 1,1-Difluoro-2-(6-phenylpyridin-2-yl)-6-azaspiro[2.5]octane-6-sulfonamide] | 1600
13 | NS(=O)(=O)N1CCC2(CC1)C[C@H]2c1nc2ccccc2s1 [Example 1, (1R)-1-(1,3-Benzothiazol-2-yl)-6-azaspiro[2.5]octane-6-sulfonamide] | 930
